Test results published in patent US5147856A, “Method for inhibiting blood vessel blockage using octapeptide compositions” (Societe de Conseils de Recherches et d'Applications …, priority 1988, dated 1992).
“And” between values parts separate entries of the source, which are not always exact repeats. Equal entries are not always repeated. Square brackets hold non-standard residues; d marks the D form. Mpa = O=C(O)CCS

Columns and labels:
[1] = tested on: myointimal proliferation of the carotid artery; experiment: Air-drying injury of the rat carotid artery, intimal/media ratio (Example 2); type: in vivo; conditions: for Intimal/Media Ratio: mean ± SE; for Inhibition of myointimal (smooth muscle cell) proliferation of the carotid artery, in words: administered from two days prior to injury, at the doses used (20 and 50 μg/kg/day)
Protocol: Male Sprague-Dawley rats, weighing […], obtained from Charles River were kept under controlled lighting conditions and fed rat chow and water ad libitum. Under sodium pentobarbital anesthesia the intima of the right carotid artery was subjected to an air-drying injury described by Fishman et al, Lab Invest., 32, 339 (1975). The procedure causes intimal hyperplasia that largely consists of proliferating intimal smooth muscle cells. In this model approximately 4 cm of the vessel is isolated and drained of blood. Air (20 ml/min) is blown through a 30 gauge needle for 5 min whereafter blood flow is reestablished. The contralateral carotid artery was also exposed but not air-dried. The rats were sacrificed 15 days later.
The experiment consisted of a control group and ten treatment groups. The somatostatin analogs used were hepta- or octapeptides, namely BIM 23014 (Angiopeptin), BIM 23012, BIM 23027, BIM 23030 and BIM 23034. […] The animals were pretreated two days prior to the procedure and for a further five days following the endothelial injury. Two additional groups of animals were added in order to study whether Angiopeptin (20 μg/kg/day and 50 μg/kg/day) administered 30 min prior to the endothelial injury and for a further five days would protect against the myointimal proliferation.
The animals were sacrificed on day 15 following the injury by exsanguination. The vascular system was flushed with normal saline and perfusion-fixed at 80 mmHg with 10% formalin. The carotid arteries were subsequently fixed, embedded and sectioned for light microscopy and morphometric analysis. The maximal intimal/media ratio is the distance from the lumen to the internal elastic lamina and the distance from the internal elastic lamina to the external elastic lamina. The distances were determined in each vessel using a digitizing system attached to a light microscope. The determinations were performed on three different cross sections of the vessel and each section was measured three times. The mean was calculated for each vessel. Differences between the groups were evaluated using Student's unpaired t-test.

growth hormone release = conditions: cited from earlier work; for Inhibition of growth hormone release, in words: in vivo; for Potency for growth hormone suppression in vivo, relative to somatostatin 14: rats, compared to somatostatin 14 (=1)
[2] = tested on: intimal hyperplasia of aorta and iliac arteries; experiment: Myointimal hyperplasia in rabbits after balloon angioplasty (Example 3); type: in vivo, rabbit; conditions: for % Intimal hyperplasia: 20 μg/kg twice daily s.c., individual samples; for Percentage of inhibition of myointimal hyperplasia: 20 μg/kg/d
Protocol: Female and Male, white New Zealand rabbits (2.8-3.0 kg) were divided into two groups (A and B). Group A (vehicle control) received subcutaneous injections of physiological saline (0.2 ml) twice daily. […] The animals were treated the day before angioplasty, and until sacrifice about 3 weeks later. The angioplasty was done under general anesthesia with Ketamine and Xylazine. Each animal's left iliac artery and aorta were denuded with an angioplasty catheter (Fogarty). The angioplasty catheter was inserted into the left femoral artery and passed through the vessel to the thoracic aorta. The catheter was then reciprocated three times. The animals were all sacrificed from days 22-24 after angioplasty. The aorta and iliac arteries were fixed in situ via perfusion with formaldehyde under constant perfusion pressure.
Intimal hyperplasia was determined on elastin-stained (Van Giesen) horizontally-cut sections. The sections were obtained from (i) the aorta at the level of the renal artery, (ii) the common iliac artery at the level of bifurcation, and (iii) the external iliac artery just above the inguinal ligament. The area of intimal hyperplasia and total vessel area were determined by morphometry. The percentage of intimal hyperplasia was expressed as follows: [formula]
Single determinations were made on three segments of each aorta and the two iliac arteries of each animal. The percentage of intimal hyperplasia was determined as the mean of the two closest measurements of each vessel.

[3] = tested on: hyperplasia of the right carotid artery; experiment: Air-drying injury of the rat right carotid artery, ratio of width of intimal and medial layers (Example 4); type: in vivo; conditions: 50 μg/kg/day s.c. twice a day
Protocol: Angiopeptin was administered s.c. twice a day 50 μg/kg/day to male Sprague-Dawley (Charles River) rats, 250-350 g each. After two days of pre-treatment, a lesion was made on the third day after the morning dose by air-drying the right carotid artery while the rats were under anesthesia (Ketamine-Innovar, i.m.). Treatment was continued on day: 4, 5, 6, and 7. The rats were sacrificed on day 14 following the injury. After in-situ fixation at constant pressure, with 10% formalin, the tissues were prepared to form morphometrics.
Hyperplasia was measured as the ratio of width of intimal and medial layers. For each rat, 3 different histological sections were measured and the morphometrics was done 3 times on each section.

[4] = tested on: smooth muscle cell proliferation in the aorta and femoral arteries; experiment: Primate balloon catheter injury of aorta and femoral arteries (Example 5); type: in vivo, cynomologous macaque; conditions: aorta and left and right femoral arteries; i.m. slow release system, 50 μg/kg/day; one treated primate vs one control; five weeks
Protocol: In order to obtain a primate coronary angioplasty model which would be suited for evaluation of Angiopeptin, a feasibility study was performed on primates which were made available from the colony at Bowman-Gray Medical School, Winston-Salem, North Carolina. These animals were culled from the colony due to failure of the primates to satisfactorily elevate blood lipids when administered a high cholesterol diet. Young male cynomologous macaques weighing approximately 3.5 kg were used after an equilibration period of more than a week in a primate facility.
The animals were sedated with Ketamine and maintained with 1% halothane in oxygen. The aorta and femoral arteries were injured by a balloon catheter (USCI, Band). After five weeks the primates were anesthetized and sacrificed. The aorta and femoral arteries were removed and fixed in formaldehyde for morphometric analysis. […]
The maximal intimal/media ratio (distance from lumen to internal elastic lamina/distance from internal elastic lamina to external elastic lamina) was determined in each vessel using a digitizing system attached to a light microscope. The determinations were done on three different cross sections of the vessel and each section was measured three times and each three measurements were averaged.

[5] = tested on: myointimal cell proliferation in the aortas of rabbits; experiment: Rabbit aorta 72 hours after balloon angioplasty: wet weight, protein, DNA/protein, 3-H thymidine incorporation (Example 6); type: in vivo; conditions: for DNA/Protein ratio, in words: FIG. 3; for Rates of cell proliferation by 3-H thymidine incorporation, in words: FIG. 4
Protocol: New Zealand White Rabbits were anesthetised with Rompun (Xylazine) and Ketalar (Ketamine) and a cannula (3F Fogarty) was inserted from the femoral artery. The balloon was inflated at a constant pressure and the aorta was de-endothelialised by angioplasty. The process was repeated three times and the wound site was closed. The animals were sacrificed 72 hours after balloon angioplasty and after removing the adventitia the aorta was cut into fine rings. These rings were incubated in the presence of 3-H thymidine and the radioactivity was determined after processing the tissue. Simultaneous measurements of DNA and protein contents were also made in these tissues.
Eight injections of Angiopeptin were made: on the morning and evening of the day prior to ballooning; two on the day of the procedure; and two on each of the following two days. The total daily dose was 2, 20, or 200 μg/Kg body weight.

[6] = tested on: Smooth Muscle Pig Left Coronary Artery Explants; experiment: H3-thymidine incorporation in pig left coronary artery explants (Example 7); type: cell-based; conditions: 24 hr, individual segments
Protocol: Domestic pig hearts were obtained from a slaughter house immediately after the animals were sacrificed. The hearts were harvested and placed in ice-cold Kreb's Ringer buffer and transported to the laboratory. The left coronary artery (LAD) was dissected in aseptic conditions and divided into pieces of 5 mm. The segments were denuded from the endothelium by gently introducing a metallic rod in the lumen. The tissues were placed in sterile multiwell culture dishes in 1 ml of culture media (DMEM with antibiotics) and without fetal calf serum. H^3 -thymidine (2.5 uCi/ml) and increasing concentrations of angiopeptin (10-1000 ng/ml) were added to the medium. Segments which were incubated with 3 different concentrations of forskolin were used as a positive control in each experiment. The incubation period was 24 hr at 37° C. and 5% CO2. The tissues were washed with phosphate saline buffer and placed in a solution of cold thymidine for one hour and then frozen in liquid nitrogen, ground and lysed with a hypotonic solution. The lysed tissues were further incubated with proteinase K overnight at 50° C. The radioactivity, content of protein and DNA were measured.

[7] = 20 μg/kg/day s.c. in two divided doses, from two days prior to injury and five days postinjury, sacrifice day 15
[8] = 50 μg/kg/day s.c. in two divided doses, from two days prior to injury and five days postinjury, sacrifice day 15
[9] = common iliac artery, female rabbits
[10] = common iliac artery, male rabbits
[11] = external iliac artery, female rabbits

With “D-Trp--Lys--Abu--Phe--Me--Ala--Tyr [BIM 23027]” the “Intimal/Media Ratio” value [1, 7] was 1.6 ± 0.2, the “Intimal/Media Ratio” value [1, 8] was 1.5 ± 0.2 and the “Inhibition of myointimal (smooth muscle cell) proliferation of the carotid artery, in words” value (from here on “Inhibition … of the carotid artery, in words”) [1] was “did not inhibit”. The “Inhibition of growth hormone release, in words” value (growth hormone release) was “most potent” and the “Potency for growth hormone suppression in vivo, relative to somatostatin 14” value (shortened to “Potency … relative to somatostatin 14”) (growth hormone release) was 100.

In the case of `CC(C)[C@@H]1NC(=O)[C@H](CCCCN)NC(=O)[C@@H](Cc2c[nH]c3ccccc23)NC(=O)[C@H](Cc2ccc(O)cc2)NC(=O)[C@@H](NC(=O)[C@H](N)Cc2ccc3ccccc3c2)CSSC[C@@H](C(=O)N[C@H](C(N)=O)[C@@H](C)O)NC1=O` [Angiopeptin, D-Nal-Cys-Tyr-D-Trp-Lys-Val-Cys-Thr-NH2], the “Intimal/Media Ratio” value [1, 7] is reported as 1.7 ± 0.2, the “Intimal/Media Ratio” value ([1]; 20 μg/kg/day, pretreatment 30 min prior to injury and for a further five days) is reported as 1.6 ± 0.9 and the “Inhibition of myointimal proliferation, in words” value ([1]; 50 μg/kg/day from 30 min prior to injury and for a further five days) is reported as “significantly (p<0.01) inhibited”. The “Intimal/Media Ratio” value [1, 8] was 1.1 ± 0.2, the “Intimal/Media Ratio” value ([1]; 50 μg/kg/day, pretreatment 30 min prior to injury and for a further five days) was 1.0 ± 0.3 and the “Inhibition … of the carotid artery, in words” value [1] was “inhibited significantly”. The “Inhibition of myointimal proliferation, in words” value ([1]; high dose 50 μg/kg/day, from two days prior to injury) was “effective”, the “Inhibition of myointimal proliferation, in words” value ([1]; low dose 20 μg/kg/day, from two days prior to injury) was “effective” and the “% Intimal hyperplasia” value ([2]; aorta, female rabbits) was 13.0% and 6.4%. The “Percentage of inhibition of myointimal hyperplasia” value ([2]; aorta, female rabbits) was about 43%, the “% Intimal hyperplasia” value ([2]; aorta, male rabbits) was 17.0% and the “Percentage of inhibition of myointimal hyperplasia” value ([2]; aorta, male rabbits) was about 32%. For the same compound, the “% Intimal hyperplasia” value [2, 9] was 9.3% and 9.5% and 7.7% and 6.5%, the “Percentage of inhibition of myointimal hyperplasia” value [2, 9] was about 33% and the “% Intimal hyperplasia” value [2, 10] was 16.0% and 6.4% and 14.0%. The “Percentage of inhibition of myointimal hyperplasia” value [2, 10] was about 39%, the “% Intimal hyperplasia” value [2, 11] was 6.6% and the “Percentage of inhibition of myointimal hyperplasia” value [2, 11] was “about 41%”. For the same compound, the “Percentage of inhibition of myointimal hyperplasia” value ([2]; external iliac artery, male rabbits) was about 20%, the “Hyperplasia: ratio of width of intimal and medial layers” value ([3]; two days pre-treatment and days 4-7, sacrifice day 14, individual rats) was 0.46 ± 0.08 and 0.28 ± 0.03 and 0.52 ± 0.05 and 0.69 ± 0.02 and the “Hyperplasia: ratio of width of intimal and medial layers, mean” value ([3]; group mean, N 4) was 0.48. For the same compound, the “Inhibition of smooth muscle cell proliferation, in words” value [4] was “nearly complete inhibition”, the “Total protein content of injured aortas, in words” value ([5]; 2 μg/kg, FIG. 2) was “lowered” and the “DNA/Protein ratio, in words” value ([5]; 20 μg/kg body weight) was “significantly lowered”. The “Rates of cell proliferation by 3-H thymidine incorporation, in words” value (“Rates of cell proliferation” below) ([5]; 20 μg/kg body wt.) was “significantly lower”, the “DNA/Protein ratio, in words” value ([5]; 200 μg/kg body wt.) was “reflected the inhibitory influence” and the “Rates of cell proliferation” value ([5]; 200 μg/kg) was “still inhibited”. The “Wet weight of aortas, in words” value ([5]; 2, 20, 200 μg/kg body wt. total daily dose, FIG. 1) was “does not seem to influence”, the “Levels of total proteins, in words” value ([5]; higher doses (20 and 200 μg/kg), FIG. 2) was “did not affect” and the “Rates of cell proliferation” value ([5]; overall) was “significantly inhibited”. For the same compound, the “CPM (H3-thymidine radioactivity)” value ([6]; Angiopeptin 10 ng/ml) was 35113.84 CPM and 46392.32 CPM and 27312.80 CPM and 55980.00 CPM, the “CPM (H3-thymidine radioactivity)” value ([6]; Angiopeptin 20 ng/ml) was 26279.81 CPM and 39027.27 CPM and 39706.01 CPM and 21562.08 CPM and the “CPM (H3-thymidine radioactivity)” value ([6]; Angiopeptin 50 ng/ml) was 18942.16 CPM and 24269.18 CPM and 40768.09 CPM and 18983.78 CPM. The “CPM (H3-thymidine radioactivity)” value ([6]; Angiopeptin 100 ng/ml) was 20794.85 CPM and 32402.31 CPM and 22033.48 CPM and 26227.64 CPM, the “CPM (H3-thymidine radioactivity)” value ([6]; Angiopeptin 1000 ng/ml) was 18325.51 CPM and 27260.98 CPM and 30226.99 CPM and 32344.58 CPM and the “Inhibition of growth hormone release, in words” value (growth hormone release) was “less active”. The “Potency … relative to somatostatin 14” value (growth hormone release) was 5.

In the case of “[Mpa]Y[dW]KVCF-NH2 (cysteine pairing not given here) [BIM 23030]”, the “Intimal/Media Ratio” value [1, 7] is reported as 1.6 ± 0.2, the “Intimal/Media Ratio” value [1, 8] is reported as 2.2 ± 0.5 and the “Inhibition … of the carotid artery, in words” value [1] is reported as “did not inhibit”. The “Potency … relative to somatostatin 14” value (growth hormone release) was 0.5.

In the case of “D-Phe--Cys--Phe-D-Trp--Lys--Thr--Cys--Thr--NH2 [BIM 23012]”, the “Intimal/Media Ratio” value [1, 7] is reported as 2.3 ± 0.4, the “Intimal/Media Ratio” value [1, 8] is reported as 1.6 ± 0.4 and the “Inhibition … of the carotid artery, in words” value [1] is reported as “did not inhibit”. The “Potency … relative to somatostatin 14” value (growth hormone release) was 62.
